Data as given in patent US20190151312A1, “HEPARAN SULFATE BIOSYNTHESIS INHIBITORS FOR THE TREATMENT OF DISEASES” (BioMarin Pharmaceutical Inc., priority 2014, published 2019).

What follows are compounds tested on GM01896 cells (MPS II dermal fibroblasts) (assay: Assay 1: MPS cellular assay, MPS II (heparan sulfate disaccharide biomarkers by LC-MS)). Conditions: Assay 1 for MPS II, heparan sulfate disaccharide biomarkers (I2a4, I2a6, I2S0 and/or I2S6), read-out: IC50 Range.
Assay type: cell-based, human
Method: Dermal fibroblasts from humans with an MPS disorder and from healthy donors are grown. Cells are expanded and kept in culture for analysis. Human foreskin fibroblasts can be obtained from the American Type Culture Collection (CRL-1634). Human dermal fibroblasts derived from biopsies of individuals are purchased from Coriell Institute: clinically healthy individuals, GM00408, GM00409, GM00200 (clinically unaffected sibling of an individual with metachromatic leukodystrophy), GM05659, GM08398, and GM15871 (clinically unaffected sibling of an individual with unclassified Ehlers-Danlos syndrome); heterozygous MPS I carriers, GM01392, GM01393 and GM0003; homozygous individuals affected with MPS I, GM06214, GM11495, GM00034, GM01391 and GM01256; individuals with MPS II, GM01896, GM03181, GM00615 and GM00298; individuals with MPS IIIA, GM00879, GM00643, GM00934, GM06110 and GM00629; MPS IIIB, GM01426; MPS IIIC, GM05157; MPS IIID, GM05093; and MPS VII, GM00121. All cells are grown in DMEM containing 50 U ml-1 penicillin, […] ml-1 streptomycin, 2 mM glutamine and 10% FBS. Cells are seeded on 15-cm-diameter tissue culture dishes, grown to confluence and maintained in culture for analysis. Sulfamidase activity in cell extracts is measured with 4-methylumbelliferyl-α-D-N-sulfoglucosaminide according the vendors instructions substituting Tris-acetate buffer (pH 6.5; Moscerdam).
Cells are treated with a compound of the invention at a concentration at or below 30 μM for 4 to 21 days. Cell monolayers are washed with phosphate buffered saline and detached by treatment with GIBCO trypsin-EDTA solution (Invitrogen). After centrifugation, the supernatant is removed and the cells are lysed in 0.5 mL of 0.1 N sodium hydroxide. The amount of protein is determined by bicinchoninic acid (BCA assay, Thermo Scientific). GAGs are isolated by anion exchange chromatography and digested with glycosaminoglycan lyases (heparinases I, II, and III, IBEX).
Enzymatically depolymerized GAG preparations are differentially mass labeled by reductive amination with [^12C6]aniline. Briefly, heparan sulfate disaccharides (1-10 pmol) are dried down in a centrifugal evaporator and reacted with [^12C6]aniline or [^13C6]aniline (15 μL, 165 μmol) and 15 μL of 1 M NaCNBH3 (Sigma-Aldrich) freshly prepared in dimethylsulfoxide/acetic acid (7:3, v/v) is added to each sample. Reactions are carried out at 37° C. for 16 h and then dried in a centrifugal evaporator. Unsubstituted amines are reacted with propionic anhydride (Sigma-Aldrich). Dried samples are reconstituted in 20 μL of 50% methanol, and 3 μL of propionic anhydride (Sigma-Aldrich, 23.3 μmol) is added. Reactions are carried out at ˜23° C. for 2 h. Acylated disaccharides are subsequently aniline tagged as described above. Each sample is mixed with commercially available standard unsaturated disaccharides (Seikagaku), standard N-sulfoglucosamine, glucosamine-6-sulfate, N-acetylgalactosamine-4-sulfate and N-acetylgalactosamine-6-sulfate (Sigma-Aldrich), and/or synthesized α-L-idopyranosyluronate-(1,4)-2-N-acetyl-2-deoxy-α/β-D-glucopyranoside (I0S0). All standards are tagged with [^13C6]aniline (Sigma-Aldrich). Samples are then analyzed by LC-MS using an LTQ Orbitrap Discovery electrospray ionization mass spectrometer (Thermo Scientific) equipped with quaternary HPLC pump (Finnigan Surveyor MS pump) and a reverse-phase capillary column as described in J. Biol. Chem. 2008, 283(48), 33674.
MPS II: Assay 1, as described above, was used to determine activity for MPS II using GM01896 cells. […] Extracted ion chromatograms were obtained. Cell viability was monitored using alamar blue or ATP quantification. IC50's were calculated using curve fitting within the ChemInnovation CBIS database system.

Row | Structure (SMILES) | IC50 [µM]
1 | Cn1c(=O)n(C)c2cc(-c3cc(Nc4ccc(Cl)cc4)nc(N4CCOCC4)n3)ccc21 [5-{6-[(4-chlorophenyl)amino]-2-morpholin-4-ylpyrimidin-4-yl}-1,3-dimethyl-3-hydrobenzimidazol-2-one] | < 0.5
2 | Cn1c(=O)n(CCN2CCOCC2)c2ccc(-c3cc(Nc4ccc(Cl)cc4)nc(N4CCOCC4)n3)cc21 [5-{6-[(4-chlorophenyl)amino]-2-morpholin-4-ylpyrimidin-4-yl}-3-methyl-1-(2-morpholin-4-ylethyl)-3-hydrobenzimidazol-2-one] | 0.5 to 1
3 | Cn1c(=O)[nH]c2ccc(-c3cc(Nc4ccc(Cl)cc4)nc(N4CCOCC4)n3)cc21 [6-{6-[(4-chlorophenyl)amino]-2-morpholin-4-ylpyrimidin-4-yl}-1-methyl-3-hydrobenzimidazol-2-one] | < 0.5

Same assay, conditions: Homo sapiens, Fibroblast, Assay 1 for MPS II, heparan sulfate disaccharide biomarkers (I2a4, I2a6, I2S0 and/or I2S6), read-out: IC50 Range

Row | Structure (SMILES) | IC50 [µM]
4 | CC(=O)c1ccc(Nc2cc(-c3ccc4cnn(C)c4c3)nc(N3CCOCC3)n2)cc1 [1-acetyl-4-{[6-(1-methyl(1H-indazol-6-yl))-2-morpholin-4-ylpyrimidin-4-yl]amino}benzene] | 0.5 to 1
5 | Cn1ncc2ccc(-c3cc(Nc4ccc([S+](C)[O-])cc4)nc(N4CCOCC4)n3)cc21 (stereo not shown) [1-{[6-(1-methyl(1H-indazol-6-yl))-2-morpholin-4-ylpyrimidin-4-yl]amino}-4-(methylsulfinyl)benzene] | 1 to 5
6 | Cn1ncc2ccc(-c3cc(Nc4ccc(S(C)(=O)=O)cc4)nc(N4CCOCC4)n3)cc21 [1-{[6-(1-methyl(1H-indazol-6-yl))-2-morpholin-4-ylpyrimidin-4-yl]amino}-4-(methylsulfonyl)benzene] | 1 to 5
7 | Cc1nn(C)c2cc(-c3cc(Nc4ccc5[nH]ncc5c4)nc(N4CCOCC4)n3)ccc12 [1H-indazol-5-yl[6-(1,3-dimethyl(1H-indazol-6-yl))-2-morpholin-4-ylpyrimidin-4-yl]amine] | 1 to 5
8 | Cn1ncc2ccc(-c3cc(Nc4ccc5[nH]ncc5c4)nc(N4CCOCC4)n3)cc21 [1H-indazol-5-yl[6-(1-methyl(1H-indazol-6-yl))-2-morpholin-4-ylpyrimidin-4-yl]amine] | 1 to 5
9 | Cc1nn(C)c2cc(-c3cc(Nc4ccc5cn[nH]c5c4)nc(N4CCOCC4)n3)ccc12 [1H-indazol-6-yl[6-(1,3-dimethyl(1H-indazol-6-yl))-2-morpholin-4-ylpyrimidin-4-yl]amine] | 1 to 5
10 | Cn1ncc2ccc(-c3cc(Nc4ccc5cn[nH]c5c4)nc(N4CCOCC4)n3)cc21 [1H-indazol-6-yl[6-(1-methyl(1H-indazol-6-yl))-2-morpholin-4-ylpyrimidin-4-yl]amine] | 1 to 5
11 | Cn1nc(CCN2CCOCC2)c2ccc(-c3cc(Nc4ccc5cn[nH]c5c4)nc(N4CCOCC4)n3)cc21 [1H-indazol-6-yl{6-[1-methyl-3-(2-morpholin-4-ylethyl)(1H-indazol-6-yl)]-2-morpholin-4-ylpyrimidin-4-yl}amine] | 0.5 to 1
12 | Cn1ccc2ccc(Nc3cc(-c4ccc5c(CCN6C(=O)c7ccccc7C6=O)nn(C)c5c4)nc(N4CCOCC4)n3)cc21 [2-[2-(1-methyl-6-{6-[(1-methylindol-6-yl)amino]-2-morpholin-4-ylpyrimidin-4-yl}-1H-indazol-3-yl)ethyl]benzo[c]azoline-1,3-dione] | 0.5 to 1
13 | Cn1ccc2ccc(Nc3cc(-c4ccc5c(CCCN6C(=O)c7ccccc7C6=O)nn(C)c5c4)nc(N4CCOCC4)n3)cc21 [2-[3-(1-methyl-6-{6-[(1-methylindol-6-yl)amino]-2-morpholin-4-ylpyrimidin-4-yl}-1H-indazol-3-yl)propyl]benzo[c]azoline-1,3-dione] | < 0.5
14 | Cn1nc(CCCO)c2ccc(-c3cc(Nc4ccc(Cl)cc4)nc(N4CCOCC4)n3)cc21 [3-(6-{6-[(4-chlorophenyl)amino]-2-morpholin-4-ylpyrimidin-4-yl}-1-methyl-1H-indazol-3-yl)propan-1-ol] | 0.5 to 1
15 | Cn1ncc2ccc(-c3cc(Nc4ccc(N5CN=NC5=O)cc4)nc(N4CCOCC4)n3)cc21 [4-(4-{[6-(1-methyl(1H-indazol-6-yl))-2-morpholin-4-ylpyrimidin-4-yl]amino}phenyl)-1,2,4-triazolin-5-one] | 1 to 5
16 | Cn1nc(CCCCO)c2ccc(-c3cc(Nc4ccc(Cl)cc4)nc(N4CCOCC4)n3)cc21 [4-(6-{6-[(4-chlorophenyl)amino]-2-morpholin-4-ylpyrimidin-4-yl}-1-methyl-1H-indazol-3-yl)butan-1-ol] | 1 to 5
17 | CN1NC=C2CC=C(c3cc(Nc4ccc(C(N)=O)cc4)nc(N4CCOCC4)n3)C=C21 [4-((6-(1-methyl-4H-indazol-6-yl)-2-morpholinopyrimidin-4-yl)amino)benzamide] | 0.5 to 1
18 | NC(=O)c1ccc(Nc2cc(-c3ccc4ncn(CCN5CCOCC5)c4c3)nc(N3CCOCC3)n2)cc1 [4-({2-morpholin-4-yl-6-[1-(2-morpholin-4-ylethyl)benzimidazol-6-yl]pyrimidin-4-yl}amino)benzamide] | 1 to 5
19 | COCCn1cnc2ccc(-c3cc(Nc4ccc(C(=O)O)cc4)nc(N4CCOCC4)n3)cc21 [4-({6-[1-(2-methoxyethyl)benzimidazol-6-yl]-2-morpholin-4-ylpyrimidin-4-yl}amino)benzoic acid] | 1 to 5
20 | Cn1nc(CCN2CCOCC2)c2ccc(-c3cc(Nc4ccc(C#N)cc4)nc(N4CCOCC4)n3)cc21 [4-({6-[1-methyl-3-(2-morpholin-4-ylethyl)(1H-indazol-6-yl)]-2-morpholin-4-ylpyrimidin-4-yl}amino)benzenecarbonitrile] | 1 to 5
21 | Cn1ncc2ccc(-c3cc(Nc4ccc(C#N)cc4)nc(N4CCOCC4)n3)cc21 [4-{[6-(1-methyl(1H-indazol-6-yl))-2-morpholin-4-ylpyrimidin-4-yl]amino}benzenecarbonitrile] | 1 to 5
22 | Cn1ncc2ccc(-c3cc(Nc4ccc(S(N)(=O)=O)cc4)nc(N4CCOCC4)n3)cc21 [4-{[6-(1-methyl(1H-indazol-6-yl))-2-morpholin-4-ylpyrimidin-4-yl]amino}benzenesulfonamide] | 1 to 5
23 | Cn1cnc2ccc(-c3cc(Nc4ccc(C(N)=O)cc4)nc(N4CCOCC4)n3)cc21 [4-{[6-(1-methylbenzimidazol-6-yl)-2-morpholin-4-ylpyrimidin-4-yl]amino}benzamide] | 0.5 to 1
24 | Cn1cnc2ccc(-c3cc(Nc4ccc(C#N)cc4)nc(N4CCOCC4)n3)cc21 [4-{[6-(1-methylbenzimidazol-6-yl)-2-morpholin-4-ylpyrimidin-4-yl]amino}benzenecarbonitrile] | 1 to 5
25 | Cn1cnc2ccc(-c3cc(Nc4ccc(S(N)(=O)=O)cc4)nc(N4CCOCC4)n3)cc21 [4-{[6-(1-methylbenzimidazol-6-yl)-2-morpholin-4-ylpyrimidin-4-yl]amino}benzenesulfonamide] | 1 to 5
26 | Cn1ncc2ccc(-c3cc(Nc4ccccc4)nc(N4CCOCC4)n3)cc21 [6-(1-methyl-1H-indazol-6-yl)-2-morpholino-N-phenylpyrimidin-4-amine] | 1 to 5
27 | Clc1ccc(Nc2cc(-c3cccc4[nH]cnc34)nc(N3CCOCC3)n2)cc1 [6-(1H-benzo[d]imidazol-4-yl)-N-(4-chlorophenyl)-2-morpholinopyrimidin-4-amine] | 0.5 to 1
28 | Cc1cc2ccc(Nc3cc(-c4ccc5c(CCN6CCOCC6)nn(C)c5c4)nc(N4CCOCC4)n3)cc2n1C [(1,2-dimethylindol-6-yl){6-[1-methyl-3-(2-morpholin-4-ylethyl)(1H-indazol-6-yl)]-2-morpholin-4-ylpyrimidin-4-yl}amine] | 0.5 to 1
